Test results reported in US11938104B1, “Compositions and methods for prevention and treatment of coronavirus and related disorders” (Abrexa Pharmaceuticals, Inc., priority 2021, dated 2024).
Where two headings read alike, the source gives them in different places.

Tests used:
[1] = tested on: SD rats; settings: rat, in vivo
[2] = tested on: male Sprague Dawley rats; type: in vivo, rat
[3] = tested on: Male SD rats; assay: J147 dose-response, 2-hour suture MCAO-induced ischemia followed by reperfusion, 72 h (Example 3); type: in vivo, rat
[4] = J147 1.0, 10, 30 mg/kg at 2 hours after onset of ischemia, 72 h after stroke, dose-dependent manner

COc1cccc(/C=N/N(C(=O)C(F)(F)F)c2ccc(C)cc2C)c1 [Compound J147]
protection from stroke in the absence of reperfusion (infarction, TTC-stained sections) [1]: fails to provide any significant protection | optimal effective dose ([2]; iv, doses of 1, 10 and 30 mg/kg tested): 10 mg/kg | infarct volume (TTC-stained sections) ([2]; rat, in vivo): large reduction | infarct volume relative to placebo (TTC-stained sections) ([2]; rat, in vivo): insignificant reduction | infarct volume (TTC-stained sections) ([2]; rat, in vivo, ip): modest reduction | effective optimal dose for the treatment of acute ischemic stroke in rats ([3]; 1.0, 10, 30 mg/kg tested): 10 mg/kg | infarct volumes [3, 4]: significantly reduced | neurological deficit after reperfusion (Bederson score) [3, 4]: significantly reduced
